From patent publication US6949566B2, “Thiazole and oxazole derivatives” (Shionogi & Co. Ltd., priority 2000, dated 2005)

Molecular target: T1, MMP-8 (Homo sapiens, UniProt P22894)
T1 construct: catalytic domain (^99Phe˜^262Gly) was amplified with PCR; His-tag; enterokinase digestion-site; made in house; host or cells: Escherichia coli
Experiment: Assay for inhibitory activities on MMPs (fluorogenic peptide substrate), MMP-8
Format: biochemical
Details: catalytic domain 99Phe-262Gly; substrate MOCAc-Pro-Leu-Gly-Leu-A2Pr(DNP)-Ala-Arg-NH2
Text: In regard to MMP-8, catalytic domain (^99Phe˜^262Gly) was amplified with PCR using commercial available Human Bone Marrow cDNA. This was cloned in Escherichia. coli expression vector pTrc99AHE inserted with His-tag sequence and enterokinase digestion-site, induced and expressed by IPTG (Isopropyl-β-D-thiogalactopyranoside) and expressed in a insoluble fraction (Thau F. Ho, M. Walid Qoronfleh, Robert C. Wahl, Trica A. Pulvino, Karen J. Vavra, Joe Falvo, Tracey M. Banks, Patricia G. Brake and Richard B. Ciccarelli: Gene expression, purification and characterization of recombinant human neutrophil collagenase. Gene 146, (1994) 297-301, Prepared by the a improved method of this material). Isolation of MMP-8 from an insoluble fraction was carried out by dissolving in modifier (6M urea) by a usual method and purification with metal chelate chromatography. And then removing modifier (6M urea) with dialysis and refolding of the enzyme spontaneously gave activated MMP-8.
(§1) The enzymatic activity on MMPs was analyzed by the method described in “C. Graham Knight, Frances Willenbrock and Gillian Murphy: A novel coumarin-labelled peptide for sensitive continuous assays of the matrix metalloproteinases: FEBS LETT., 296, (1992), 263-266”. The substrate MOCAc-Pro-Leu-Gly-Leu-A2Pr(DNP)-Ala-Arg-NH2 was purchased from Peptide Institute, Inc., Osaka, Japan. The measurement of the inhibitory activities (IC50) was carried out by the following four methods;
(§2) (A) Reaction with substrate, enzyme (MMPs) and inhibitor
(§3) (B) Reaction with substrate and inhibitor, without enzyme
(§4) (C) Reaction with substrate and enzyme (MMPs), without inhibitor
(§5) (D) Reaction with substrate only
(§6) IC50 values were calculated by using the following formula and each fluorescence values of above four methods (A to D). % inhibition={1−(A−B)/(C−D)}×100 IC50 means the concentration required to inhibit 50% of the enzyme activity.

T1 sequence (P22894 99-262): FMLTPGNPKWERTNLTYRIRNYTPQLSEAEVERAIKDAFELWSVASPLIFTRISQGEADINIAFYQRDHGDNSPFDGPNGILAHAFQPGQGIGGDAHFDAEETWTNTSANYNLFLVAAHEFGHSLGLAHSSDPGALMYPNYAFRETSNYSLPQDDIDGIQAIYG

Compound | IC50 [nM]
C[C@@H](NS(=O)(=O)c1ccc(-c2ncc(-c3ccccc3)s2)cc1)C(=O)O [Compound B-21] | 58.2
CC(C)[C@@H](NS(=O)(=O)c1ccc(-c2ncc(-c3ccc(Br)cc3)s2)cc1)C(=O)O [Compound B-10] | 31.7

Now those with a lower IC50, led by results:

IC50 [nM] | Compound
25.2 | C[C@@H](NS(=O)(=O)c1ccc(-c2ncc(-c3ccc(F)cc3)s2)cc1)C(=O)O [Compound B-27]
24.9 | COc1ccc(-c2cnc(-c3ccc(S(=O)(=O)N[C@H](CC(C)C)C(=O)O)cc3)s2)cc1 [Compound B-34]
10.5 | CC(C)[C@@H](NS(=O)(=O)c1ccc(-c2ncc(-c3ccc(F)cc3)s2)cc1)C(=O)O [Compound B-8]

Molecular target: T2, MMP-13 (Homo sapiens, UniProt P45452)
T2 construct: catalytic domain (^104Tyr˜^267Gly) was amplified with RT-PCR; His-tag; enterokinase digestion-site; made in house; host or cells: Escherichia coli
Experiment: Assay for inhibitory activities on MMPs (fluorogenic peptide substrate), MMP-13
Format: biochemical
Details: catalytic domain 104Tyr-267Gly; substrate MOCAc-Pro-Leu-Gly-Leu-A2Pr(DNP)-Ala-Arg-NH2
Procedure: (§7) In regard to MMP-13, mRNA was prepared from carcinoma cell SW1353 derived from human cartilage stimulate by IL-1, TNF and catalytic domain (^104Tyr˜^267Gly) was amplified with RT-PCR. This was cloned in Escherichia. coli expression vector pTrc99AHE inserted with His-tag sequence and enterokinase digestion-site, induced and expressed by IPTG (Isopropyl-β-D-thiogalactopyranoside) and expressed in a insoluble fraction. Isolation of MMP-13 from an insoluble fraction was carried out by dissolving in modifier (6M urea) by a usual method and purification with metal chelate chromatography (Ni Chelateing Sepharose). And then removing modifier (6M urea) with dialyze and refolding of the enzyme spontaneously gave activated MMP-13.
as §1, §2, §3, §4, §5, §6

Compound | IC50 [nM]
C[C@@H](NS(=O)(=O)c1ccc(-c2ncc(-c3ccccc3)s2)cc1)C(=O)O [Compound B-21] | 22
CC(C)[C@@H](NS(=O)(=O)c1ccc(-c2ncc(-c3ccc(Br)cc3)s2)cc1)C(=O)O [Compound B-10] | 3.38

Now from value to compound:

IC50 [nM] | Compound
15.3 | C[C@@H](NS(=O)(=O)c1ccc(-c2ncc(-c3ccc(F)cc3)s2)cc1)C(=O)O [Compound B-27]
6.82 | COc1ccc(-c2cnc(-c3ccc(S(=O)(=O)N[C@H](CC(C)C)C(=O)O)cc3)s2)cc1 [Compound B-34]
9.53 | CC(C)[C@@H](NS(=O)(=O)c1ccc(-c2ncc(-c3ccc(F)cc3)s2)cc1)C(=O)O [Compound B-8]

Molecular target: T3, MMP-2 (Homo sapiens, UniProt P08253)
T3 construct: purchased Calbiochem-Novabiochem International, Inc
T3 sequence (P08253 110-660): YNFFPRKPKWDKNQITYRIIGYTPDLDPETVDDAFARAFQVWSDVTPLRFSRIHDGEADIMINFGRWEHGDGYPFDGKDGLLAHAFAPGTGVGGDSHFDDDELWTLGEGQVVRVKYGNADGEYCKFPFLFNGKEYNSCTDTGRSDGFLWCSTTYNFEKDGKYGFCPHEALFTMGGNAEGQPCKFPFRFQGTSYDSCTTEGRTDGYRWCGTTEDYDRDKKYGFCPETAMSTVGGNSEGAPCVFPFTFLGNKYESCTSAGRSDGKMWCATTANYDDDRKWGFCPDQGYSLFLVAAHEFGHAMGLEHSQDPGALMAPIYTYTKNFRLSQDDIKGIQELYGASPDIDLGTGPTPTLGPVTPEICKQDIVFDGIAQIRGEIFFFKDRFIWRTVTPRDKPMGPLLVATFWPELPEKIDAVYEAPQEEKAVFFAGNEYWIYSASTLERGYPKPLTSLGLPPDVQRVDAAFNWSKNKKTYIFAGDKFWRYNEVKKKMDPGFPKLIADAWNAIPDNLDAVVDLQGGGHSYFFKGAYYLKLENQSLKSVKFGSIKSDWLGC
Experiment: Assay for inhibitory activities on MMPs (fluorogenic peptide substrate), MMP-2
Format: biochemical
Details: purchased MMP-2; substrate MOCAc-Pro-Leu-Gly-Leu-A2Pr(DNP)-Ala-Arg-NH2
Procedure: MMP-2 was purchased from Calbiochem-Novabiochem International, Inc.
as §1, §2, §3, §4, §5, §6

Compound | IC50 [nM]
C[C@@H](NS(=O)(=O)c1ccc(-c2ncc(-c3ccccc3)s2)cc1)C(=O)O [Compound B-21] | 1.47
CC(C)[C@@H](NS(=O)(=O)c1ccc(-c2ncc(-c3ccc(Br)cc3)s2)cc1)C(=O)O [Compound B-10] | 0.373

Now from value to compound:

IC50 [nM] | Compound
0.901 | C[C@@H](NS(=O)(=O)c1ccc(-c2ncc(-c3ccc(F)cc3)s2)cc1)C(=O)O [Compound B-27]
1.63 | COc1ccc(-c2cnc(-c3ccc(S(=O)(=O)N[C@H](CC(C)C)C(=O)O)cc3)s2)cc1 [Compound B-34]
1.38 | CC(C)[C@@H](NS(=O)(=O)c1ccc(-c2ncc(-c3ccc(F)cc3)s2)cc1)C(=O)O [Compound B-8]

Molecular target: T4, MMP-12 (Homo sapiens, UniProt P39900)
T4 construct: catalytic domain(^100Phe˜^263Gly) was amplified with RT-PCR; His-tag; enterokinase digestion-site; made in house; host or cells: Escherichia coli
T4 sequence (P39900 100-263): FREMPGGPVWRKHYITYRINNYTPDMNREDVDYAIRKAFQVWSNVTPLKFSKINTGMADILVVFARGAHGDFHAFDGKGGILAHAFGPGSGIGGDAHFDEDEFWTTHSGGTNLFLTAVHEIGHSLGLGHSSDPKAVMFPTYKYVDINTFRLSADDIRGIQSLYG
Experiment: Assay for inhibitory activities on MMPs (fluorogenic peptide substrate), MMP-12
Format: biochemical
Details: catalytic domain 100Phe-263Gly; substrate MOCAc-Pro-Leu-Gly-Leu-A2Pr(DNP)-Ala-Arg-NH2
Procedure: as §7, with “MMP-12,” for “MMP-13, mRNA was prepared from carcinoma cell SW1353 derived from human cartilage stimulate by IL-1, TNF and”, “domain(^100Phe˜^263Gly)” for “domain (^104Tyr˜^267Gly)”, “RT-PCR from Human Placenta Total RNA.” for “RT-PCR.”, “MMP-12” for “MMP-13”, “dialysis” for “dialyze”, “MMP-12.” for “MMP-13.”
as §1, §2, §3, §4, §5, §6

Compound | IC50 [nM]
C[C@@H](NS(=O)(=O)c1ccc(-c2ncc(-c3ccccc3)s2)cc1)C(=O)O [Compound B-21] | 5.86
CC(C)[C@@H](NS(=O)(=O)c1ccc(-c2ncc(-c3ccc(Br)cc3)s2)cc1)C(=O)O [Compound B-10] | 0.643

Next, values leading:

IC50 [nM] | Compound
3.29 | C[C@@H](NS(=O)(=O)c1ccc(-c2ncc(-c3ccc(F)cc3)s2)cc1)C(=O)O [Compound B-27]
3.35 | COc1ccc(-c2cnc(-c3ccc(S(=O)(=O)N[C@H](CC(C)C)C(=O)O)cc3)s2)cc1 [Compound B-34]
1.96 | CC(C)[C@@H](NS(=O)(=O)c1ccc(-c2ncc(-c3ccc(F)cc3)s2)cc1)C(=O)O [Compound B-8]

Molecular target: T5, MMP-9 (Homo sapiens, UniProt P14780)
T5 construct: endogenous in cells; host or cells: HT1080 human fibrosarcoma cells, TPA-stimulated; enzyme purified from conditioned medium
T5 sequence (P14780 107-707 limits assumed): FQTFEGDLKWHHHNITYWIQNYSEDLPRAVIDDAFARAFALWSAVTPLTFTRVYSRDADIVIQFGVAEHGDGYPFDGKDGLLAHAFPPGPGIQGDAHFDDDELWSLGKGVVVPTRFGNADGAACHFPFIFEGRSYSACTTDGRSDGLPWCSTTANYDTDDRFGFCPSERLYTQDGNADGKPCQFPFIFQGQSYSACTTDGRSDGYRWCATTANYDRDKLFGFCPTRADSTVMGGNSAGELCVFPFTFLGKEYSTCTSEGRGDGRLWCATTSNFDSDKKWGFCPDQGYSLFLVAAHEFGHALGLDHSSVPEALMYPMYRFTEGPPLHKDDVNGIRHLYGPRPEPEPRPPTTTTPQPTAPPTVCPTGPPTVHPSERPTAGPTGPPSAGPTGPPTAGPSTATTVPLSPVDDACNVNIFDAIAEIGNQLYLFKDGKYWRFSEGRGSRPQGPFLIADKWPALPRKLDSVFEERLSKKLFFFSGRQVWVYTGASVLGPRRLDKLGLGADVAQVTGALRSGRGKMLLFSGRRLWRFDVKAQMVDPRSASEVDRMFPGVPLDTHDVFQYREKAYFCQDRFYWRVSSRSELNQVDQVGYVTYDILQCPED
Experiment: Assay for inhibitory activities on MMPs (fluorogenic peptide substrate), MMP-9
Format: biochemical
Details: MMP-9 from HT1080 cells, activated by TPCK-Trypsin; substrate MOCAc-Pro-Leu-Gly-Leu-A2Pr(DNP)-Ala-Arg-NH2
Text: MMP-9 was isolated and purified by procedures described in as follows: Yasunori Okada, Yukio Gonoji, Katsumi Naka, Katsuro Tomita, Isao Nakanishi, Kazushi Iwata, Kyoko Yamashita, and Taro Hayakawa: Matrix metalloproteinase 9 (92-kDa gelatinase/type IV collagenase) from HT1080 human fibrosarcoma cells. Purification and activation of the precursor and enzymic properties J. Biol. Chem., 1992, 267 21712-21719, in combination with others: 1)Yasunori Okada, Tatsuhisa Morodomi, Jan J, Enghild, ko Suzuki, Atsushi Yasui, Isao Nakanishi, Guy Salvesen and Hideaki Nagase: Matrix metalloproteinase 2 from human rheumatoid synovial fibroblasts. Purification and activation of the precursor and enzymic properties. Eur. J. Biochem. 1990, 194 721-730; 2)Robin V Ward, Rosalind M Hembry, John J Reynolds and Gillian Murphy: The purification of tissue inhibitor of metalloproteinase-2 from its 72 kDa progelatinase complex. Biochem. J. 1991 278 179-187. In detail, human fibrosarcoma ATCC HT1080 cell line was cultured to confluent in Dulbecco's Modified Medium (DMEM) containing 10% fetal-calf serum at 37° C. for 48 hours. Subsequently, the medium of confluent culture was changed to serum-free DMEM medium. To obtain MMP-9, Phorbol-12-myristate-13-acetate (TPA) must be added to this serum-free DMEM medium at a concentration of 50 ng/ml. The TPA treated medium was centrifuged at 3000 rpm for 15 min and the supernatant was concentrated to 450 ml by a Toyo-Roshi UP-20 apparatus with an ultrafiltration membrane. Then, proMMP-9 in this concentrated solution was purified by using columns of Gelatin-Sepharose and Concanavalin A-Sepharose. The pool containing proMMP-9 was dialyzed, concentrated (Toyo-Roshi UP-20) and applied to columns of Sephacryl S-200 and Green A matrix for the separation from TIMPs. The obtained proMMP-9 fraction was activated by TPCK-Trypsin (Final conc. 3 μg/501 μl React Mix.).
as §1, §2, §3, §4, §5, §6

Compound | IC50 [nM]
C[C@@H](NS(=O)(=O)c1ccc(-c2ncc(-c3ccccc3)s2)cc1)C(=O)O [Compound B-21] | 19.9
CC(C)[C@@H](NS(=O)(=O)c1ccc(-c2ncc(-c3ccc(Br)cc3)s2)cc1)C(=O)O [Compound B-10] | 3.96

Second part, the compound after the results:

IC50 [nM] | Compound
13.3 | C[C@@H](NS(=O)(=O)c1ccc(-c2ncc(-c3ccc(F)cc3)s2)cc1)C(=O)O [Compound B-27]
53.6 | COc1ccc(-c2cnc(-c3ccc(S(=O)(=O)N[C@H](CC(C)C)C(=O)O)cc3)s2)cc1 [Compound B-34]
11.1 | CC(C)[C@@H](NS(=O)(=O)c1ccc(-c2ncc(-c3ccc(F)cc3)s2)cc1)C(=O)O [Compound B-8]
